For 1 compound, mortality rate results are on record in patent publication US20170356900A1, “TOXICANT ASSAYS FOR COSMETIC PRODUCTS” (priority 2016, published 2017).

In the series the test system is zebrafish (Danio rerio) AB strain embryos. Put plainly: Acute toxicity testing using zebrafish embryos (mortality after 48 hr exposure). The series is classed as in vivo. The conditions noted are these: positive control, 3.7 mg/L; 48 hr exposure at 26° C. The protocol:
Extracts prepared as described in Example 1 were tested for acute toxicity using zebrafish (Danio rerio) AB strain embryos. BB cream extracts were diluted into zebrafish embryo culture medium at nominal concentrations of 0.3, 0.6, 1.4, 3.0 and 6.7 g/L. Zebrafish AB strain embryos of 4-128 cell stages were exposed to extract dilutions in a 96-well plate at 1 embryo per well. Each concentration was tested with 20 embryos. Zebrafish embryo culture medium and 3.7 mg/L dichloroaniline were included as negative and positive controls, respectively. After 48 hr exposure at 26° C., zebrafish embryos were observed under a stereomicroscope and fish embryos that were coagulated, tail not detached, and having no heart beat were marked as dead. Mortality rate for each concentration was calculated as the acute toxicity endpoint. The mortality rate for the negative control was 0% and for the positive control was 30%. […] Of the three BB cream extracts, brand C was the most toxic and brand B was the least toxic to zebrafish embryos.

Compound `Nc1ccc(Cl)c(Cl)c1` [dichloroaniline] displayed a mortality rate of 30%.
